Experimental data: paper PMC9701690, “Teloxantron inhibits the processivity of telomerase with preferential DNA damage on telomeres” (Cell Death & Disease, 2022)

Molecular target: T1, hTERT (catalytic subunit of human telomerase) (Homo sapiens, UniProt O14746)
T1 construct: gene TERT; with telomerase ribonucleoprotein (TERC RNA and accessory proteins)
Experiment: test-tube TRAP assay
Assay type: biochemical

T1 sequence (O14746 whole entry): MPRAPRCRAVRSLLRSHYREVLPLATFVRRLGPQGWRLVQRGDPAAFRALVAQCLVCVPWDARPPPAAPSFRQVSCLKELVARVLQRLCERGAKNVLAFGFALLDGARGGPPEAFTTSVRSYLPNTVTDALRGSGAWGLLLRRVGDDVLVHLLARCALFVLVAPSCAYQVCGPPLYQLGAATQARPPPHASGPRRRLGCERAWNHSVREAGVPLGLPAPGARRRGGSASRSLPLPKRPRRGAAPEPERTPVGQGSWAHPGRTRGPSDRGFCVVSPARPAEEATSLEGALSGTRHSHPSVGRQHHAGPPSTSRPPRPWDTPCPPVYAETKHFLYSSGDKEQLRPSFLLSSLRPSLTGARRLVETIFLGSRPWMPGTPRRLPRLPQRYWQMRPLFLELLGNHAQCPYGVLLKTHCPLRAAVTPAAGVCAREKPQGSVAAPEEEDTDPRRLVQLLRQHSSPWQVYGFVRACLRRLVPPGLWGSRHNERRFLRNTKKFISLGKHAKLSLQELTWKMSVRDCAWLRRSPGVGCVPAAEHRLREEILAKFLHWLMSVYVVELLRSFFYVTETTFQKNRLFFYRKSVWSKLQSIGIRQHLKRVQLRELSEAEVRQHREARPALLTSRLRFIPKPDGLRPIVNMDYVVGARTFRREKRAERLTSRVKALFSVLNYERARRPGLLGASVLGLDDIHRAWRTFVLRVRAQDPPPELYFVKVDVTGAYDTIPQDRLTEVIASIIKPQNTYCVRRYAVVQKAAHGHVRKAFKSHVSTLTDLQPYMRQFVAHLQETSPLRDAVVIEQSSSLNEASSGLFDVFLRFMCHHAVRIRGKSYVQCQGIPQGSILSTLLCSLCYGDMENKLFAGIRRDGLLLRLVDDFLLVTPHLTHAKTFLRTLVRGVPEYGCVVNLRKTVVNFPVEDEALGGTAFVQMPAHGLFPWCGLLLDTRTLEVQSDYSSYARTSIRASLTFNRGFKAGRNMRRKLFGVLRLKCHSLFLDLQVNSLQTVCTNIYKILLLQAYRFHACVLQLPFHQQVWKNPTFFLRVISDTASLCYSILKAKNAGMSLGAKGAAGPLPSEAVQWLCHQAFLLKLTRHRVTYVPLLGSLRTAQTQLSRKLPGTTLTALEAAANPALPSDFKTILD

- IC50: 64.1 ± 2.53 µM
Structure (SMILES): C/C(=C\C(=O)Nc1ccccc1C(=O)O)c1ccc2ccccc2c1 [BIBR1532]
